Literature values in patent US20080299189A1, “CONTROLLED RELEASE DOPAMINE AGONIST COMPOSITIONS” (DRUGTECH CORPORATION, priority 2007, published 2008).

Key:
[1] = compared to placebo

half-life (in vivo): 8.5 h
Cmax (printed as a time): 1 to 3 h
relative risk of hallucination [1]: 5.2
relative risk of hypotension [1]: 1.65
relative risk of somnolence [1]: 2.01
SMILES: CCCN[C@H]1CCc2nc(N)sc2C1 [pramipexole, (S)-2-amino-4,5,6,7-tetrahydro-6-(propylamino)benzothiazole]
